Results published in patent US8546435B2, “Triazole derivatives with improved receptor activity and bioavailability properties as ghrelin antagonists of growth hormone secretagogue receptors” (AEterna Zentaris GmbH, priority 2010, dated 2013).
Where two headings read alike, the source gives them in different places.

Tests used:
[1] = target: T1, Human Ghrelin Receptor (GHS-R 1A) (Homo sapiens (Human), UniProt Q92847); assay: Competitive binding, iodinated ghrelin tracer, intact LTK-cells overexpressing GHS-R 1A; settings: 60 min at 37° C.
Source text: (§1) Mouse LTK-cells (ATCC CCL-1.3) were stably transfected with a plasmid containing the CMV minimal promoter (CMVmin) linked to three cAMP response elements (CRE) followed by a luciferase reporter gene. Based on this parental cell line, single cell clones stably overexpressing the human, rat or mouse GHS-R 1A have been established and characterized with respect to suitability for the different assay formats.
For receptor competitive binding studies, iodinated ghrelin was used as a tracer at conditions of about 80% saturation binding. Different concentrations of the test compounds were analyzed for displacement of the tracer. For this purpose, the suspension of intact cells plus tracer mix and different test compound concentrations was layered on top of silicon/paraffin oil, incubated for 60 min at 37° C. and subjected to centrifugation. After freezing in liquid nitrogen the cell pellets were separated from the supernatant by cutting the tubes in the intermediate silicon/paraffin oil section and analyzed by γ-radiation analysis. The amount of unspecific binding was determined by including unlabeled ghrelin at 1 μM final concentration.
(§2) IC50 values were determined by using the GraphPad Prism analysis program (GraphPad Software).
(§3) Values given are either single measurements or mean values of up to nine independent experiments performed in duplicate (binding) or quadruplicate (functional assays) measurements.

[2] = target: T1, Human Ghrelin Receptor (GHS-R 1A); assay: CRE/Luc reporter gene assay, antagonist; type: cell-based; settings: 6 h, 1 μM rolipram
Source text: as §1
For the CRE/Luc reporter gene assay, the mouse LTK-cells stably expressing the human GHS-1RA and a luciferase reporter gene under the control of CRE elements and the CMV minimal promoter were incubated for 6 h with 1 μM rolipram in the presence of different concentrations of AEZS-130. Subsequently, cells were lysed and ATP bioluminescence was measured in the luminescence mode on FlexStation3 (Molecular Devices).
as §2, §3

[3] = target: T1, Human Ghrelin Receptor (GHS-R 1A); assay: Calcium release, antagonist; type: cell-based; settings: 15 minutes preincubation, then ghrelin
Source text: as §1
(§4) For determination of calcium release the respective cell line was loaded with Fluo-4 NW Calcium Assay Kit (Moleculare Probes/Invitrogen # F10741) for 80 min @ 37° C. After 15 minutes of preincubation with different concentrations of the test compounds ghrelin was added and the signal was monitored for 60 seconds by a FlexStation3 microplate reader (Molecular Devices).
as §2, §3

[4] = target: MDR-1 (P-glycoprotein, Pgp) (Homo sapiens (Human), UniProt P08183); assay: Inhibition of MDR1 ATPase (Pgp-Glo assay, SF9 membrane preparations); type: biochemical
Protocol: For detection of MDR-1 (P-glycoprotein, Pgp) ATPase activity commercially available membrane preparations of MDR-1 overexpressing SF9 insect cells (SB-MDR1-Sf9-ATPase Membrane; 2.5 mg/500 μL; Solvo/tebu-bio #168SB-MDR1-Sf9-ATPase) were used. Since transport by MDR-1 is ATP-dependent, ATP consumption indicates transport activity of MDR-1. ATP consumption is detected as a decrease in luminescence from a second reaction with a recombinant firefly luciferase by using the Pgp-Glo™ Assay Kit (Promega # V3591).

hERG channel = hERG channel (Homo sapiens (Human), UniProt Q12809); assay: Predictor hERG Fluorescence Polarization Assay; type: binding
Source text: The Predictor™ hERG Fluorescence Polarization Assay (Invitrogen, Karlsruhe, GER) determines whether test compounds block the hERG channel [Piper, D. R. et al., Assay Drug Dev Technol. 2008, 6(2):213-23]. The assay uses a membrane fraction containing hERG channel protein (Predictor™ hERG Membrane) and a high-affinity red fluorescent hERG channel ligand, or “tracer” (Predictor™ hERG Tracer Red), in a homogenous, fluorescence polarization (FP)-based format. Compounds that bind to the hERG channel protein (competitors) are identified by their ability to displace the tracer, resulting in a lower fluorescence polarization. The assay was performed according to guidelines of the manufacturer

CYP3A4 = CYP3A4 (Homo sapiens (Human), UniProt P08684); assay: CYP3A4 inhibition in human liver microsomes, direct and metabolism-dependent; type: in vitro ADME
Protocol: Direct and metabolism-dependent inhibition of CYP enzymes are assessed with specific marker substrates by a HPLC-based UV detection method in human liver microsomes. Incubations are carried out as doublets with final concentrations ranging from 0.01 to 200 μM (30 min, 37° C.). Metabolism-dependent inhibition was assessed by incubation for 30 minutes in the presence of NADPH prior to the addition of marker substrate to allow the generation of metabolites. Percent inhibition is plotted against concentration to calculate or extrapolate IC50 values from the sigmoid curve.

[5] = Stability in liver microsomes; type: in vitro ADME, rat; settings: @37° C./1 mg/ml Liver Microsomes, 10 μM
Protocol: Metabolic stability in liver microsomes of different species (in the presence of NADPH, 1 mg/ml microsomal protein) was evaluated at 37° C. over time in triplicates at a test concentration of 10 μM. Loss of parent compound is measured by an HPLC-based UV detection method. For prediction of rat hepatic clearance half-lives (t1/2) were fitted from first-order rate constant k (min^−1) obtained from the slope of time versus In % remaining.

[6] = target: Mouse Ghrelin Receptor (GHS-R 1A) (Mus musculus (Mouse), UniProt Q99P50); assay: Calcium release, antagonist; type: cell-based; settings: 15 minutes preincubation, then ghrelin; read-out: Mouse Ghrelin Receptor Antagonist Calcium Release IC50
Source text: as §1, §4, §2
(§5) In the following table 1 results obtained for selected compounds of the invention are presented in comparison to compound 50 disclosed in WO07/020,013. Values given are either single measurements or mean values of up to nine independent experiments performed in duplicate (binding) or quadruplicate (functional assays) measurements.

[7] = target: Rat Ghrelin Receptor (GHS-R 1A) (Rattus norvegicus (Rat), UniProt O08725); assay: Calcium release, antagonist; type: cell-based; settings: 15 minutes preincubation, then ghrelin; read-out: Rat Ghrelin Receptor Antagonist Calcium Release IC50
Source text: as §1, §4, §2, §5

[8] = CaCo-2 permeability assay; type: in vitro ADME; settings: human; for Papp A→B at 2 h: a to b, read-out: CaCo-2 Assay Papp ab; for Papp A→B at 2 h / Papp B→A at 2 h: 3 or 5 μM, 2 hours at 37° C.; for Papp B→A at 2 h: b to a, read-out: CaCo-2 Assay Papp ba; for efflux ratio at 2 h: read-out: CaCo-2 Assay ba/ab
Protocol: For the CaCo-2 permeability assay 80.000 CaCo-2 cells (ATCC HTB-37) were seeded in DMEM supplemented with 10% FCS, 1% Penicillin/Streptomycin and 1% non-essential amino acids per 24 well transwell plate (Corning 3397) and were grown for 21 days by changing the media every second day. On day 21 the medium was replaced by HBSS buffer (Invitrogen #14065) supplemented with 0.25% and 1% BSA for the donor and acceptor compartment, respectively. The compounds were added to the respective donor compartment in a concentration of 3 or 5 μM and were incubated for 2 hours at 37° C. The respective compound concentrations were determined by LC-MS analytics using an API 2000. Data analysis was performed as described by Sun and Pang 2008, Drug Metabolism and Disposition 36, 102-123.

[9] = marker substrate testosteron, 30 minutes preincubation with NADPH, read-out: CYP3A4 Inhibition Testosteron Preincubation EC50
[10] = marker substrate testosteron, direct inhibition, human liver microsomes, read-out: CYP3A4 Inhibition Testosteron EC50

CYP3A4, sequence (P08684 whole entry): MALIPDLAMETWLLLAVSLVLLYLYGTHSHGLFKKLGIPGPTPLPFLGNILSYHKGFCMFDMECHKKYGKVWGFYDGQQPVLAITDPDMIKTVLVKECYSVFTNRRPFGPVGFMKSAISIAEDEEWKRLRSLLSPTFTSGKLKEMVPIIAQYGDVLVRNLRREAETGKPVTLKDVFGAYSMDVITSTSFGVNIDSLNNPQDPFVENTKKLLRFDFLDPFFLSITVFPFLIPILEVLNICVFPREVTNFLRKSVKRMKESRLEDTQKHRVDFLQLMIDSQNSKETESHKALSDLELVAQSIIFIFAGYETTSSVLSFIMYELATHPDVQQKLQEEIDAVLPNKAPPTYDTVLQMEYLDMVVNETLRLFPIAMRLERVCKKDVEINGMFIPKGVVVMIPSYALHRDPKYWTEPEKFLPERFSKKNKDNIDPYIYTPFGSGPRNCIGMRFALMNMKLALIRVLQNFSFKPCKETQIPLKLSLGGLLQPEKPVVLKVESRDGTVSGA
hERG channel, sequence (Q12809 whole entry): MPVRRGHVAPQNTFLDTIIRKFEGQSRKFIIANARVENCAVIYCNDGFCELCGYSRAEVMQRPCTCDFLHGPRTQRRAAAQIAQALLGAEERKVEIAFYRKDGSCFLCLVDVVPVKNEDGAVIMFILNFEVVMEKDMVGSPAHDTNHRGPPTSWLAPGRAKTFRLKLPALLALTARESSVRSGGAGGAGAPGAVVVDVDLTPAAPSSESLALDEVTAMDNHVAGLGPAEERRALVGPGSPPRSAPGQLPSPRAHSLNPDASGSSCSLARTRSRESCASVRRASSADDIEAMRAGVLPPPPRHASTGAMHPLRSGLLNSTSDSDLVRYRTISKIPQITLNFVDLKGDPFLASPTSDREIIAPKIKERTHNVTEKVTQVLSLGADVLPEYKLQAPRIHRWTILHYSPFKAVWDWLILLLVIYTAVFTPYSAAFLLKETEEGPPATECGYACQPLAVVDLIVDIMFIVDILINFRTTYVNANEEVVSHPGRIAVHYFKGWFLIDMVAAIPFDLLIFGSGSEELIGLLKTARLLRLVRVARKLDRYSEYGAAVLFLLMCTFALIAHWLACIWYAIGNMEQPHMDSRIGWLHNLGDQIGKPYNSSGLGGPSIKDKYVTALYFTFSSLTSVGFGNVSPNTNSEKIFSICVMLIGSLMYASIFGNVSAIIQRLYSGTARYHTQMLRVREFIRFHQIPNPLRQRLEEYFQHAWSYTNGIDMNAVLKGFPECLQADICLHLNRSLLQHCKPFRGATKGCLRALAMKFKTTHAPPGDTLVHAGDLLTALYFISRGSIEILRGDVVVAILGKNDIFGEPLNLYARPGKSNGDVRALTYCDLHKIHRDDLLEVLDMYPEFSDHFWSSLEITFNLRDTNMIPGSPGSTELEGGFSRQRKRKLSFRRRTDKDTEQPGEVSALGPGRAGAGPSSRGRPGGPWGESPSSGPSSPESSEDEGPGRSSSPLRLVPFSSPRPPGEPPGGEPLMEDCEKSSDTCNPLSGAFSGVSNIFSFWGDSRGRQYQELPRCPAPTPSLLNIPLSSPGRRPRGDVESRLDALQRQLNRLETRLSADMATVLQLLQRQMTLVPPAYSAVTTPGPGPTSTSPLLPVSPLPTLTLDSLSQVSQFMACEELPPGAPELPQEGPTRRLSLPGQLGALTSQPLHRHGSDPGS
MDR-1 (P-glycoprotein, Pgp), sequence (P08183 whole entry): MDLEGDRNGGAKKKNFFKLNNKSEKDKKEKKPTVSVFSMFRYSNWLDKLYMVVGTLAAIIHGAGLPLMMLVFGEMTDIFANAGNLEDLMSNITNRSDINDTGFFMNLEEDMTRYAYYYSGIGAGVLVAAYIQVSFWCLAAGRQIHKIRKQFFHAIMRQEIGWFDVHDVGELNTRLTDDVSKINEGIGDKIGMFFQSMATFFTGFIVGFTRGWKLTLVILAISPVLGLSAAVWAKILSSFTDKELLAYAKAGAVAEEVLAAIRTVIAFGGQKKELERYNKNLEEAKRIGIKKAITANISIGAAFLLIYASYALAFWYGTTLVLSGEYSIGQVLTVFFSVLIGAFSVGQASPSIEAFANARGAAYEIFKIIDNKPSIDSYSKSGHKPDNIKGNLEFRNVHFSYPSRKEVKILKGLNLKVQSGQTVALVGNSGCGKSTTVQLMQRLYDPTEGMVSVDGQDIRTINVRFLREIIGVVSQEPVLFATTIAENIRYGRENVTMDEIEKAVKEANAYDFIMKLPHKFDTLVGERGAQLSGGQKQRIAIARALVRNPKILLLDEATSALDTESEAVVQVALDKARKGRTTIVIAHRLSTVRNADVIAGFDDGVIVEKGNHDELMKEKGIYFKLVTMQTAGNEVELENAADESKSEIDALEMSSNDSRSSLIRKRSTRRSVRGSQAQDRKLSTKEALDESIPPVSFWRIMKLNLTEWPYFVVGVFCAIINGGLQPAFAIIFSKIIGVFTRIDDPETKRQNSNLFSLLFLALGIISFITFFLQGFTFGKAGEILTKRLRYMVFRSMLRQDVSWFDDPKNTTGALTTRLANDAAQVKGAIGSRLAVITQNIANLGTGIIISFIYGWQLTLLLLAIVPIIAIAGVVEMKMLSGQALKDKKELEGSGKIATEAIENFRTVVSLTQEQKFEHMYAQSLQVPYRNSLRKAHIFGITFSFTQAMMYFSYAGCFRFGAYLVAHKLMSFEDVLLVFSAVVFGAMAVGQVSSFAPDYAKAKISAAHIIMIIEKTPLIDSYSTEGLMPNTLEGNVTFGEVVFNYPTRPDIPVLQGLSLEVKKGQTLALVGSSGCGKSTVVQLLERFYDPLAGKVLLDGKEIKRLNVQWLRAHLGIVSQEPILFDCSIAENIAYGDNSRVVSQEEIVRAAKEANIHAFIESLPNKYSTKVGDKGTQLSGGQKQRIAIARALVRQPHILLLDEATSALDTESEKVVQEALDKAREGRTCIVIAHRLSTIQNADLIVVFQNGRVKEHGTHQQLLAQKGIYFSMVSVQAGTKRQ
T1 sequence (Q92847 whole entry): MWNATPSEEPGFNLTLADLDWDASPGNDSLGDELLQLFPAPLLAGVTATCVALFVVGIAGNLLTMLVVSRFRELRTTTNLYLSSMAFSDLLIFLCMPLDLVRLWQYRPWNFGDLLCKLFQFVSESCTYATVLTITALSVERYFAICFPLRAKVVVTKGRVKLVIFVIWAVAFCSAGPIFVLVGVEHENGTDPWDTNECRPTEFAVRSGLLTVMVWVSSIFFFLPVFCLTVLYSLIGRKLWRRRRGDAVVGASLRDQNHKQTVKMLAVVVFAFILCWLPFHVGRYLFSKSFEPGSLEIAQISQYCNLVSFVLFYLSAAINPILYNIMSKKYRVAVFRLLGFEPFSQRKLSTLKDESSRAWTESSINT
Mouse Ghrelin Receptor (GHS-R 1A), sequence (Q99P50 whole entry): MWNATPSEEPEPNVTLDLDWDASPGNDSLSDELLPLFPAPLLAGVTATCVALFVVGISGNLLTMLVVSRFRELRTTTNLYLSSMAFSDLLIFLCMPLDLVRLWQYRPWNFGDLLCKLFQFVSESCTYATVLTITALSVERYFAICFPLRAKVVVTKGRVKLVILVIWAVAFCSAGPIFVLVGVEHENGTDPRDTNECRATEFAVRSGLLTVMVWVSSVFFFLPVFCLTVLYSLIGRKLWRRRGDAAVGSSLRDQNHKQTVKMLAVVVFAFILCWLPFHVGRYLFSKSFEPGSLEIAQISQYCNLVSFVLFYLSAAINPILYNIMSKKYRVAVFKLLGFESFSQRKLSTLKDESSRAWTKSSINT
Rat Ghrelin Receptor (GHS-R 1A), sequence (O08725 whole entry): as the sequence (Q99P50 whole entry) above, with S30P, S249A counted along it

Row | Compound | IC50 [1] [nM] | IC50 [2] [nM] | IC50 [3] [nM] | EC50 [4] [nM] | hERG Predictor EC50 (hERG channel) | EC50 (CYP3A4; [9]) [nM] | EC50 (CYP3A4; [10]) [nM] | Stability in Liver Microsomes Rat % Remaining after 1 h Incubation [5] [%] | IC50 [6] [nM] | IC50 [7] [nM] | EC50 (CYP3A4; marker substrate midazolam, 30 minutes preincubation with NADPH, read-out: CYP3A4 Inhibition Midazolam Preincubation EC50) [nM] | EC50 (CYP3A4; marker substrate midazolam, direct inhibition, human liver microsomes, read-out: CYP3A4 Inhibition Midazolam EC50) [nM] | Papp A→B at 2 h [8] [×10⁻⁶ cm/s] | Papp B→A at 2 h [8] [×10⁻⁶ cm/s] | efflux ratio at 2 h [8] | Inhibition of MDR1 ATPase EC50 [4]
1 | COc1ccc(Cn2c([C@@H](Cc3ccccc3)NC(C)=O)nnc2[C@@H](Cc2c[nH]c3ccccc23)NC(=O)[C@@H]2CNCCO2)cc1.O=C(O)C(F)(F)F [Cpd 7, (S)-Morpholine-2-carboxylic acid [(R)-1-[5-((R)-1-acetylamino-2-phenyl-ethyl)-4-(4-methoxy-benzyl)-4H-[1,2,4]triazol-3-yl]-2-(1H-indol-3-yl)-ethyl]-amide] | 3.4 | 9.5 | 3.8 | 1080 | no inhibition | 1100 | 27000 | 82.7 |  |  |  |  |  |  |  | 
2 | COc1ccc(Cn2c([C@@H](Cc3c[nH]c4ccccc34)NC(C)=O)nnc2[C@@H](Cc2c[nH]c3ccccc23)NC(=O)c2ccccn2)cc1.O=C(O)C(F)(F)F [Cpd 3, Pyridine-2-carboxylic acid [(R)-1-[5-[(R)-1-acetylamino-2-(1H-indol-3-yl)-ethyl]-4-(4-methoxy-benzyl)-4H-[1,2,4]triazol-3-yl]-2-(1H-indol-3-yl)-ethyl]-amide] | 0.6 | 2.2 | 2.5 | 38600 | no inhibition |  |  | 38.5 | 29.2 | 29.9 | 980 | 3200 | 0.37 ± 0.02 | 17.2 ± 0.42 | 51.9 | 
3 | CCOC(=O)Cc1nnc([C@@H](Cc2c[nH]c3ccccc23)NC(=O)c2cccnc2)n1Cc1ccc(OC)cc1 [Cpd 1, [5-{(R)-2-(1H-Indol-3-yl)-1-[(pyridine-3-carbonyl)-amino]-ethyl}-4-(4-methoxy-benzyl)-4H-[1,2,4]triazol-3-yl]-acetic acid ethyl ester] |  | 12.8 | 3 |  |  |  |  |  |  |  |  |  |  |  |  | 
4 | COc1ccc(Cn2c([C@@H](Cc3ccccc3)NC(C)=O)nnc2[C@@H](Cc2c[nH]c3ccccc23)NC(=O)CO)cc1.O=C(O)C(F)(F)F [Cpd 6, N-[(R)-1-[5-((R)-1-Acetylamino-2-phenyl-ethyl)-4-(4-methoxy-benzyl)-4H-[1,2,4]triazol-3-yl]-2-(1H-indol-3-yl)-ethyl]-2-hydroxy-acetamide] | 3 | 7.8 | 2.1 |  | no inhibition | 1400 | 34300 | 27.1 |  |  |  |  |  |  |  | no inhibition
5 | COc1ccc(Cn2c([C@@H](Cc3c[nH]c4ccccc34)NC=O)nnc2[C@@H](Cc2c[nH]c3ccccc23)NC(=O)C(C)(C)N)cc1.O=C(O)C(F)(F)F [Cpd 9, 2-Amino-N-[(R)-1-[5-[(R)-1-formylamino-2-(1H-indol-3-yl)-ethyl]-4-(4-methoxy-benzyl)-4H-[1,2,4]triazol-3-yl]-2-(1H-indol-3-yl)-ethyl]-2-methyl-propionamide] | 3.2 | 58.6 | 32.6 | 836 | no full dose | 1500 | 10000 to 30000 | 54.8 |  |  |  |  |  |  |  | 
6 | COc1ccc(Cn2c(CCc3c[nH]c4ccccc34)nnc2[C@@H](Cc2ccc3ccccc3c2)NC(=O)OC(C)(C)C)cc1.O=C(O)C(F)(F)F [Cpd 15, {(R)-1-[5-[2-(1H-Indol-3-yl)-ethyl]-4-(4-methoxy-benzyl)-4H-[1,2,4]triazol-3-yl]-2-naphthalen-2-yl-ethyl}-carbamic acid tert-butyl ester] | 16.5 | 24.9 | 39.9 | 16300 |  |  |  | 37.8 |  |  |  |  |  |  |  | 
7 | COc1ccc(Cn2c([C@@H](Cc3c[nH]c4ccccc34)NC(C)=O)nnc2[C@@H](Cc2c[nH]c3ccccc23)NC(=O)C(C)(C)N)cc1.O=C(O)C(F)(F)F [Cpd 8, N-[(R)-1-[5-[(R)-1-Acetylamino-2-(1H-indol-3-yl)-ethyl]-4-(4-methoxy-benzyl)-4H-[1,2,4]triazol-3-yl]-2-(1H-indol-3-yl)-ethyl]-2-amino-2-methyl-propionamide] | 1.4 | 22.4 | 19.1 | 196000 | no inhibition | 900 | 31200 | 64.3 | 363 | 1050 |  |  | 0.08 ± 0.08 | 0.74 ± 0.03 | 9.25 | 
